Molecular target: T1, aldose reductase (Rattus norvegicus, UniProt P07943)
T1 construct: The lenses were homogenized in 3 volumes of 135 mM sodium potassium phosphate buffer (pH 7.0) and centrifuged; from tissue; host or cells: crystalline lenses of six-week-old male SD rats
Assay: Test for Examining Aldose Reductase Inhibitory Effect (rat lens enzyme, DL-glyceraldehyde substrate, absorbance at 340 nm)
Type: biochemical
Conditions: aldose reductase solution from crystalline lenses of SD rats; DL-glyceraldehyde 10 mM; 30°C for 5 minutes; pH 5.2; compound at 10 ⁻⁶ M, 10⁻⁷ M or 10 ⁻⁸ M; read-out: IC₅₀
Procedure: Six-week-old male SD rats were anesthetized with ether and killed. Then their crystalline lenses were immediately removed and stored at -80 °C . […] The resulting supernatant was dialyzed overnight against 0.05 M sodium chloride solution to obtain an aldose reductase solution. All operations were conducted at 4 °C and the enzyme solution was stored at -80°C .
More specifically, 0.1 ml of DL-glyceraldehyde (final concentration: 10 mM) was added to 0.9 ml of 100 mM sodium potassium phosphate buffer (pH 5.2) which contained lithium sulfate (final concentration: 400 mM), reduced nicotinamide adenine dinucleotide phosphate (final concentration: 0.15 mM), the enzyme solution, and the compound to be evaluated (final concentration: 10 ⁻⁶ M, 10⁻⁷ M or 10 ⁻⁸ M), and then the reaction was conducted at 30°C for 5 minutes. During the reaction, the change in the absorbance at 340 nm with time was monitored.
The maximum reducing rate of the absorbance (U) during the reaction was determined. By subtracting, from this value, the maximum reducing rate (U₀) at 340 nm of the reaction solution before the addition of the substrate (DL-glyceraldehyde), the reaction rate (V = U - U₀) was calculated as a true reaction rate in the presence of the compound to be tested. The same procedure was repeated except for the absence of the compound to be tested. A true reaction rate (V₀) in case the enzyme was not inhibited was calculated (V₀ = U¹ - U₀¹). The aldose reductase inhibitory activity of the test compounds was determined according to the following formula: Rate of Inhibition (%) = (V₀ - V)/V₀ x 100 [formula]

Compound | IC50 [nM]
COc1ccc2cc(-c3nnnn3CC(=O)O)sc2c1 [Example 2-11, [5-(6-Methoxy-2-benzothienyl)tetrazol-1-yl]acetic acid] | 21
O=C(O)Cn1nnnc1-c1cccc2sccc12 [Example 2-3, [5-(4-Benzothienyl)tetrazol-1-yl]acetic acid] | 26
CCCCOc1ccc2cc(-c3nnnn3CC(=O)O)sc2c1 [Example 2-12, [5-(6-Butoxy-2-benzothienyl)tetrazol-1-yl]acetic acid] | 24
COc1ccc2c(C)c(-c3nnnn3CC(=O)O)oc2c1 [Example 2-17, [5-(6-Methoxy-3-methyl-2-benzofuryl)tetrazol-1-yl]acetic acid] | 160
Cc1ccc2cc(-c3nnnn3CC(=O)O)sc2c1 [Example 2-8, [5-(6-Methyl-2-benzothienyl)tetrazol-1-yl]acetic acid] | 18
COc1ccc2sc(-c3nnnn3CC(=O)O)cc2c1 [Example 2-10, [5-(5-Methoxy-2-benzothienyl)tetrazol-1-yl]acetic acid] | 28
O=C(O)Cn1nnnc1-c1ccc2ccsc2c1 [Example 2-4, [5-(6-Benzothienyl)tetrazol-1-yl]acetic acid] | 34
O=C(O)Cn1nnnc1-c1cc2ccccc2o1 [Example 2-15, [5-(2-Benzofuryl)tetrazol-1-yl]acetic acid] | 46
O=C(O)Cn1nnnc1-c1cc2ccccc2s1 [Example 2-1, [5-(2-Benzothienyl)tetrazol-1-yl]acetic acid] | 24
Cc1cccc2sc(-c3nnnn3CC(=O)O)cc12 [Example 2-7, [5-(4-Methyl-2-benzothienyl)tetrazol-1-yl]acetic acid] | 22

Continued by falling IC50, values first:

IC50 [nM] | Compound
69 | COc1cc2cc(-c3nnnn3CC(=O)O)sc2c(OC)c1OC [Example 2-14, [5-(5,6,7-Trimethoxy-2-benzothienyl)tetrazol-1-yl]acetic acid]
68 | Cc1c(-c2nnnn2CC(=O)O)oc2ccccc12 [Example 2-16, [5-(3-Methyl-2-Benzofuryl)tetrazol-1-yl]acetic acid]
35 | O=C(O)Cn1nnnc1-c1sc2ccccc2c1Cl [Example 2-6, [5-(3-Chloro-2-benzothienyl)tetrazol-1-yl]acetic acid]
32 | Cc1c(-c2nnnn2CC(=O)O)sc2ccccc12 [Example 2-5, [5-(3-Methyl-2-benzothienyl)tetrazol-1-yl]acetic acid]
20 | COc1cccc2sc(-c3nnnn3CC(=O)O)cc12 [Example 2-9, [5-(4-Methoxy-2-benzothienyl)tetrazol-1-yl]acetic acid]
19 | O=C(O)Cn1nnnc1-c1csc2ccccc12 [Example 2-2, [5-(3-Benzothienyl)tetrazol-1-yl]acetic acid]
18 | CC(C)c1ccc2cc(-c3nnnn3CC(=O)O)sc2c1 [Example 2-13, [5-(6-Isopropyl-2-benzothienyl)tetrazol-1-yl]acetic acid]

From patent EP0506011A1, “Tetrazoleacetic acid derivatives having aldose reductase inhibitory activity” (Wakamoto Pharmaceutical Co., Ltd., priority 1991, dated 1992)
